Laboratory results reported in ChEMBL document CHEMBL3407397, “Effect of size and N-terminal residue characteristics on bacterial cell penetration and antibacterial activity of the proline-rich peptide Bac7” (J Med Chem, 2015).
≈ marks a conversion by molar mass, not a printed value. Non-standard residues stand in square brackets, D forms with d. Residues, ends and D or L forms follow the SMILES beside them. Arg(NO2) = N=C(NCCC[C@H](N)C(=O)O)N[N+](=O)[O-]; Gly(N-(CH2)3-guanidino) = N=C(N)NCCCNCC(=O)O; Arg(Me2a) = CN(C)C(=N)NCCC[C@H](N)C(=O)O

Experiments:
Format in all cases: functional
Escherichia coli [1] = assay: Antimicrobial activity against Escherichia coli ATCC 25922 incubated for 18 hrs at 37 degC by broth microdilution method; settings: ATCC 25922, 18 h
Escherichia coli [2] = assay: Antimicrobial activity against O-antigen lacking LPS containing wild type Escherichia coli BW25113 incubated for 18 hrs at 37 degC by broth microdilution method; settings: BW25113, 18 h
Escherichia coli [3] = assay: Antimicrobial activity against delta-waaG deletion mutant containing Escherichia coli BW25113 incubated for 18 hrs at 37 degC by broth microdilution method; settings: BW25113, 18 h
Escherichia coli [4] = assay: Antimicrobial activity against delta-sbmA deletion mutant containing Escherichia coli BW25113 incubated for 18 hrs at 37 degC by broth microdilution method; settings: BW25113, 18 h

Row | Molecule | MIC (Escherichia coli [1]) [µM] | MIC (Escherichia coli [2]) [µM] | MIC (Escherichia coli [3]) [µM] | MIC (Escherichia coli [4]) [µM]
1 | H-KKIRPRPPRLPRPRPRPLPYPRP-OH | 4 | 4 | 2 | 16
2 | CC[C@H](C)[C@H](NC(=O)[C@H](CCCNC(=N)N)NC(=O)[C@@H](N)CCCN/C(N)=N\[N+](=O)[O-])C(=O)N[C@@H](CCCNC(=N)N)C(=O)N1CCC[C@H]1C(=O)N[C@@H](CCCNC(=N)N)C(=O)N1CCC[C@H]1C(=O)N1CCC[C@H]1C(=O)N[C@@H](CCCNC(=N)N)C(=O)N[C@@H](CC(C)C)C(=O)N1CCC[C@H]1C(=O)N[C@@H](CCCNC(=N)N)C(=O)N1CCC[C@H]1C(=O)N[C@@H](CCCNC(=N)N)C(=O)N1CCC[C@H]1C(=O)N[C@@H](CCCNC(=N)N)C(=O)N1CCC[C@H]1C(=O)N[C@@H](CC(C)C)C(=O)N1CCC[C@H]1C(=O)N[C@@H](Cc1ccc(O)cc1)C(=O)N1CCC[C@H]1C(=O)N[C@@H](CCCNC(=N)N)C(=O)N1CCC[C@H]1C(=O)O (H-[Arg(NO2)]RIRPRPPRLPRPRPRPLPYPRP-OH) | 4 (≈ 11.8 µg/mL) | 4 (≈ 11.8 µg/mL) | 1 (≈ 2.94 µg/mL) | 8 (≈ 23.5 µg/mL)
3 | CC[C@H](C)[C@H](NC(=O)[C@H](CCCNC(=N)N)NC(=O)[C@@H](N)CCCNC(=N)N(C)C)C(=O)N[C@@H](CCCNC(=N)N)C(=O)N1CCC[C@H]1C(=O)N[C@@H](CCCNC(=N)N)C(=O)N1CCC[C@H]1C(=O)N1CCC[C@H]1C(=O)N[C@@H](CCCNC(=N)N)C(=O)N[C@@H](CC(C)C)C(=O)N1CCC[C@H]1C(=O)N[C@@H](CCCNC(=N)N)C(=O)N1CCC[C@H]1C(=O)N[C@@H](CCCNC(=N)N)C(=O)N1CCC[C@H]1C(=O)N[C@@H](CCCNC(=N)N)C(=O)N1CCC[C@H]1C(=O)N[C@@H](CC(C)C)C(=O)N1CCC[C@H]1C(=O)N[C@@H](Cc1ccc(O)cc1)C(=O)N1CCC[C@H]1C(=O)N[C@@H](CCCNC(=N)N)C(=O)N1CCC[C@H]1C(=O)O (H-[Arg(Me2a)]RIRPRPPRLPRPRPRPLPYPRP-OH) | 2 (≈ 5.85 µg/mL) | 2 (≈ 5.85 µg/mL) | 0.5 (≈ 1.46 µg/mL) | 8 (≈ 23.4 µg/mL)
4 | CC[C@H](C)[C@H](NC(=O)[C@H](CCCNC(=N)N(C)C)NC(=O)[C@@H](N)CCCNC(=N)N(C)C)C(=O)N[C@@H](CCCNC(=N)N)C(=O)N1CCC[C@H]1C(=O)N[C@@H](CCCNC(=N)N)C(=O)N1CCC[C@H]1C(=O)N1CCC[C@H]1C(=O)N[C@@H](CCCNC(=N)N)C(=O)N[C@@H](CC(C)C)C(=O)N1CCC[C@H]1C(=O)N[C@@H](CCCNC(=N)N)C(=O)N1CCC[C@H]1C(=O)N[C@@H](CCCNC(=N)N)C(=O)N1CCC[C@H]1C(=O)N[C@@H](CCCNC(=N)N)C(=O)N1CCC[C@H]1C(=O)N[C@@H](CC(C)C)C(=O)N1CCC[C@H]1C(=O)N[C@@H](Cc1ccc(O)cc1)C(=O)N1CCC[C@H]1C(=O)N[C@@H](CCCNC(=N)N)C(=O)N1CCC[C@H]1C(=O)O (H-[Arg(Me2a)][Arg(Me2a)]IRPRPPRLPRPRPRPLPYPRP-OH) | 8 (≈ 23.6 µg/mL) | 8 (≈ 23.6 µg/mL) | 2 (≈ 5.91 µg/mL) | 16 (≈ 47.3 µg/mL)
5 | CC[C@H](C)[C@H](NC(=O)CN(CCCNC(=N)N)C(=O)CNCCCNC(=N)N)C(=O)N[C@@H](CCCNC(=N)N)C(=O)N1CCC[C@H]1C(=O)N[C@@H](CCCNC(=N)N)C(=O)N1CCC[C@H]1C(=O)N1CCC[C@H]1C(=O)N[C@@H](CCCNC(=N)N)C(=O)N[C@@H](CC(C)C)C(=O)N1CCC[C@H]1C(=O)N[C@@H](CCCNC(=N)N)C(=O)N1CCC[C@H]1C(=O)N[C@@H](CCCNC(=N)N)C(=O)N1CCC[C@H]1C(=O)N[C@@H](CCCNC(=N)N)C(=O)N1CCC[C@H]1C(=O)N[C@@H](CC(C)C)C(=O)N1CCC[C@H]1C(=O)N[C@@H](Cc1ccc(O)cc1)C(=O)N1CCC[C@H]1C(=O)N[C@@H](CCCNC(=N)N)C(=O)N1CCC[C@H]1C(=O)O (H-[Gly(N-(CH2)3-guanidino)][Gly(N-(CH2)3-guanidino)]IRPRPPRLPRPRPRPLPYPRP-OH) | 1 (≈ 2.9 µg/mL) | 0.5 (≈ 1.45 µg/mL) | 0.5 (≈ 1.45 µg/mL) | 8 (≈ 23.2 µg/mL)
